The results in this text go back to patent US7439024B2, “Methods and kits for diagnosing or monitoring autoimmune and chronic inflammatory diseases” (The United States of America as represented by the …, priority 2005, dated 2008).

The subject of test [1] is CD70. As to the kind of experiment: CD70 expression on CD4+ cells of PBMCs cultured with medications commonly used to treat lupus (flow cytometry). The settings on record: PBMCs with or without PHA, 24 hours, graded concentrations 1-100 μM. The format is cell-based, human. (In general: In flow cytometry, cells or beads pass a laser one at a time.)
Test [2] deals with CD70. The note with it: PHA-stimulated purified T cells, 3 days after treatment, oligonucleotide arrays, 2 independent experiments, mean±SEM.
For another test, the system named is autologous B cells. Nature of the test: T cell and B cell costimulation assay, IgG ELISA of supernatants. In kind it is cell-based, human. The settings on record: P<0.05; for IgG produced by B cells cultured with drug-treated cloned T cells vs untreated T cells: TT48E cloned CD4+ T cell line treated 3 days, autologous B cells, without PWM, FIG. 4; for IgG secreted by B cells cultured with drug-treated T cells vs same numbers of untreated T cells: unfractionated PHA-stimulated T cells treated 3 days, cultured with PWM and autologous B cells 8 days, FIG. 3. The procedure:
T cell and B cell costimulation assays. E-rosette-purified T cells were stimulated for 16 hours with PHA and then treated with the indicated chemicals for an additional 72 hours as described above. Where indicated, T cell subsets were isolated by negative selection using magnetic beads (Miltenyi). B cells (1-4×10^5) enriched by negative selection using magnetic beads (Miltenyi) and assessed to be 70-85% pure using PE-conjugated anti-human CD21 (PHARMINGEN), were added to washed, drug-treated autologous T cells, at T cell to B cell ratios of 4:1, 2:1, 1:1, 1:2, and 1:4. Where indicated, 0.625 μg/ml of PWM (ALDRICH) was added. The cells were cultured in RPMI 1640/10% FBS/penicillin/streptomycin for 8 days in 96-well roundbottomed plates (Costar) containing a 200 μl total volume (performed in duplicate). Cells were supplemented with 50 μl of medium on day 4. Where indicated, 1 μg/ml of anti-CD70 monoclonal antibody (HNE51) (DAKO) was added to the cultures. TT48E cells were similarly stimulated with PHA (1 μg/ml) for 18 hours, treated with the indicated drugs for 3 days, then similarly cultured with autologous B cells for 8 days. Where indicated, the TT48E cells were pretreated with 1 μg/ml of anti-CD70 for 30 minutes at […], then washed and added to the B cells, according to protocols described by others (See, e.g., Kobata et at., Proc Natl Acad Sci U S A 92, 11249 (1995)).
IgG enzyme-linked immunosorbent assays (ELISAs). IgG was measured in the supernatants of the T cell-B cell cultures (See, e.g., Richardson et al., Clin Immunol Immunopathol 55, 368 (1990)). Briefly, 96-well flatbottomed polystyrene plates (Costar) were coated with 1 μg/ml of goat anti-human IgG (Southern Biotech) and washed. Unreacted combining sites were sealed with 3% bovine serum albumin (BSA) in phosphate buffered saline (PBS) by incubation at 4° C. for 16 hours. Pooled supernatants from duplicate wells were diluted 1:5 in PBS/1% BSA, and 50 μl was added to the wells. Serial dilutions of purified human IgG (Sigma) were used for quantitation. Following incubation and washing, goat anti-human IgG conjugated with horseradish peroxidase (Southern Biotech) was added, and cells were incubated for 2 hours at room temperature. The wells were washed 3 times with PBS/0.1% Tween 20, and color was developed using Sigma Fast tablets. The plates were read at 405 nm using a SpectraMax spectrophotometer (Molecular Devices). All determinations were performed in quadruplicate.
Since CD70 participates in T cell-dependent B cell stimulation (See e.g., Kobata et al., Proc Natl Acad Sci USA 92, 11249 (1995)), the effects of DNA methylation inhibitors on CD70-dependent B cell help were examined. […] Eight days later, total IgG in the supernatants was measured by ELISA. […]

The next test deals with CD70 promoter. As to the kind of experiment: Bisulfite sequencing of the CD70 promoter in drug-treated CD4+ T cells. The format is cell-based, human. The settings on record: for methylation of the 10 CG pairs in the CD70 promoter region between −515 and −423: CD4+ T cells stimulated with anti-CD3 and anti-CD28, vs stimulated untreated controls, FIGS. 13, 14. From the text:
(§1) In other studies, T cells were isolated by negative selection using magnetic beads and instructions provided by the manufacturer (Pan T cell Isolation Kit, Miltenyi), and the CD4+ or CD8+ subset was similarly isolated by magnetic cell sorting. […] Purified human CD4+ T cells were first stimulated with plate bound anti-CD3 and soluble anti-CD28.
Bisulfite sequencing. The putative CD70 promoter was identified using the published CD70 cDNA sequence and Tfsitescan software. Deoxycytosine (dC) and deoxymethylcytosine (d^mC) bases in the gene promoter and 5′ flanking sequences were identified by bisulfite treatment of purified DNA followed by nested PCR amplification of 3 sequential fragments to span the entire region. The primers were designed to avoid CG pairs and to account for the conversion of dC to dU by the bisulfite. EcoRI sites were added to the forward primers, and XbaI to the reverse, to facilitate cloning. The amplified fragments were then cloned into PBS+, and 5 clones sequenced for each fragment. The primers used were: […]
The effect of lupus and DNA methylation inhibitors on a regulatory element in the CD70 promoter was examined. DNA was isolated from the CD4+ T cells of 7 healthy individuals or 6 lupus patients, bisulfite treated, the region from −466-−515, containing 6 CG pairs was amplified by PCR, and 5 fragments sequenced from each individual. The average methylation status of the 6 CG pairs for healthy versus lupus individuals is shown (FIG. 8, NI and Lupus, respectively). CD4+ T cells from 5 individuals were also stimulated with PHA, treated with the irreversible DNA methyltransferase inhibitor 5-azacytidine (5-azaC), and the methylation status of the 6 CG pairs similarly analyzed from the 25 fragments sequenced (FIG. 8, 5-azaC). […] Results are presented as the mean±SEM of the average methylation of the 6 CG pairs, measured from the 10-35 determinations/group.
The effects of the DNA methylation inhibitors on the methylation status of this region were then compared. […] Again, 5 cloned fragments were sequenced from each control, for a total of 35 determinations per CG pair. […] FIG. 14 compares the average methylation for the 10 CG pairs (−515 to −423) in the T cells treated with DNA methylation inhibitors relative to stimulated, untreated controls.

For a further test, the system named is CD70 mRNA. As to the kind of experiment: Real time RT-PCR of CD70 transcripts relative to β-actin in drug-treated T cells. The format is cell-based, human. The settings on record: for CD70 transcripts relative to β-actin, normalized to the untreated control: CD4+ T cells stimulated with anti-CD3 + anti-CD28, 5 μm 5-azaC, 50 μm Pca, 20 μm Hyd, 40 μm U0126 or 25 μm PD98059 for 3 days, FIG. 9; for expression of CD70 mRNA relative to that of beta-actin vs untreated cells: T cells, real time RT-PCR, FIG. 1B. The procedure: Cells and cell culture. Peripheral blood mononuclear cells (PBMCs) were isolated by density-gradient centrifugation. T cells were then isolated by E-rosetting (See, e.g., Golbus et at., Clin Immunol Immunopathol 46, 129 (1988)). […] Where indicated, the cells were cultured in RPMI 1640/10% fetal calf serum (FCS) supplemented with interleukin-2 (IL-2) (See, e.g., Richardson et at., Clin Immunol Immunopathol 55, 368 (1990)), in round-bottomed 5-ml culture tubes (FALCON). Cells were stimulated with 1 μg/ml of PHA (REMEL) for 16 hours, then cultured in 24-well plates at a density of 1×10^6 for an additional 72 hours in the presence of 2-deoxy-5-azaC or 5-azaC (SIGMA-ALDRICH), procainamide (SIGMA-ALDRICH), hydralazine (SIGMA-ALDRICH), or the MEK inhibitors U0126 (PROMEGA) or PD98059 (PROMEGA […]). In other studies, PHA-stimulated PBMCs were cultured in RPMI 1640/10% FCS and treated with indomethacin, chloroquine, hydrocortisone, and 6-mercaptopurine (6-MP) (all from SIGMA-ALDRICH). TT48E, a cloned, CD4+, tetanus toxoid-reactive human T cell line, was cultured as previously described (Comacchia et al., J Immunol 140, 2197 (1988); Richardson et al., Arthritis Rheum 35, 647 (1992)).
as §1
(In general: Quantitative PCR measures a nucleic acid by following its amplification.)

Test [3] deals with CD70. Nature of the test: Flow cytometric analysis of CD70 expression on T cells treated with DNA methylation inhibitors. In kind it is cell-based, human. The note with it: for increase of CD70 expression on T cell clone TT48E: 3 days, 6 serial experiments; for increase of CD70 MFI on CD4+ T cells: CD4+ T cell subset; for CD70 expression on PHA-stimulated T cells, treated vs untreated: polyclonal T cells, 1 μM 5-azaC 3 days, procainamide increasing dosage, 25 μM PD98059 and dose response, 40 μM U0126 and dose response, FIG. 2; for CD70 expression on CD4+ T cells: summary statement in Example 8.

`CCN(CC)CCCC(C)Nc1ccnc2cc(Cl)ccc12` (stereo not drawn) [chloroquine]: the “CD70 expression on stimulated or unstimulated CD4+ cells” value in the test with CD70 [1] is recorded as “No increase in CD70 expression”.

On to `COc1ccc2c(c1)c(CC(=O)O)c(C)n2C(=O)c1ccc(Cl)cc1` [indomethacin], for which the “CD70 expression on stimulated or unstimulated CD4+ cells” value in the test on CD70 [1] is “No increase in CD70 expression”.

Regarding `Nc1ncn([C@H]2C[C@H](O)[C@@H](CO)O2)c(=O)n1` [2-deoxy-5-azaC], in the test on CD70 [2], the “CD70 expression increase in treated cells relative to untreated controls” value is recorded as 2.6±0.6 fold.

On to `N#CC(=C(/N)Sc1ccccc1N)/C(C#N)=C(\N)Sc1ccccc1N` [U0126], for which, in the test with autologous B cells, the “IgG produced by B cells cultured with drug-treated cloned T cells vs untreated T cells” value is “greater amounts of IgG” and the “IgG secreted by B cells cultured with drug-treated T cells vs same numbers of untreated T cells” value is given as “greater amounts of IgG”. In addition, in the test on CD70 promoter, the “methylation of the 10 CG pairs in the CD70 promoter region between −515 and −423” value (from here on “methylation of the 10 CG pairs”) is recorded as “appears to demethylate”. For the same compound, in the test on CD70 mRNA, the “CD70 transcripts relative to β-actin, normalized to the untreated control” value is on record as “increase CD70 transcripts” and the “expression of CD70 mRNA relative to that of beta-actin vs untreated cells” value is listed as “increased the expression of CD70 mRNA”. In the test with CD70 [3] (40 μM, P=0.004), the “increase of CD70 expression on T cell clone TT48E” value stood at 1.87±0.37 fold. Also, the “increase of CD70 MFI on CD4+ T cells” value in the test with CD70 [3] (40 μM, P=0.039, n=4) was determined as 3.20±0.44 fold. Also, the “increase of CD70 MFI in T cells treated with U0126 (FIG. 2I)” value in the test with CD70 [3] (P=0.085, stated in the passage on the smaller CD8+ increase) is recorded as 2.83±0.95 fold. Further, in the test with CD70 [3], the “CD70 expression on PHA-stimulated T cells, treated vs untreated” value (“CD70 expression … vs untreated” below) is “increase in CD70 expression with treatment” and the “CD70 expression on CD4+ T cells” value was “increased CD70 expression”.

On to `C[C@]12CCC(=O)C=C1CC[C@@H]1[C@@H]2[C@@H](O)C[C@@]2(C)[C@H]1CC[C@]2(O)C(=O)CO` [hydrocortisone], for which the “CD70 expression on stimulated or unstimulated CD4+ cells” value in the test on CD70 [1] is given as “No increase in CD70 expression”.

As for `CCN(CC)CCNC(=O)c1ccc(N)cc1` [procainamide], the “methylation of the 10 CG pairs” value in the test with CD70 promoter is listed as “appears to demethylate”. Besides, the “methylation status of the CD70 promoter region from −466-−515 containing 6 CG pairs” value in the test on CD70 promoter (PHA-stimulated CD4+ T cells, FIG. 8) was “demethylate this region”. Besides, the “CD70 transcripts relative to β-actin, normalized to the untreated control” value in the test with CD70 mRNA was “increase CD70 transcripts”. Moreover, in the test with CD70 [3], the “CD70 expression … vs untreated” value is recorded as “increase in the ratio of the mean fluorescence intensity (MFI) of CD70 expression” and the “CD70 expression on CD4+ T cells” value is given as “increased CD70 expression”.

For the compound `COc1cccc(-c2cc(=O)c3ccccc3o2)c1N` [PD98059], in the test with CD70 promoter, the “methylation of the 10 CG pairs” value was “appears to demethylate”. Moreover, the “CD70 transcripts relative to β-actin, normalized to the untreated control” value with CD70 mRNA is “increase CD70 transcripts”. Further, in the test with CD70 [3] (25 μM, P=0.032, n=3), the “increase of CD70 MFI on CD4+ T cells” value came out at 1.63±0.43 fold. For the same compound, in the test with CD70 [3], the “CD70 expression … vs untreated” value is on record as “increase in CD70 expression with treatment” and the “CD70 expression on CD4+ T cells” value was “increased CD70 expression”.

`Sc1ncnc2nc[nH]c12` [6-MP, 6-mercaptopurine]: the “CD70 expression on stimulated or unstimulated CD4+ cells” value in the test with CD70 [1] was “No increase in CD70 expression”.

For the compound `Nc1ncn([C@@H]2O[C@H](CO)[C@@H](O)[C@H]2O)c(=O)n1` [5-azaC, 5-azacytidine], in the test with autologous B cells, the “IgG produced by B cells cultured with drug-treated cloned T cells vs untreated T cells” value is “greater amounts of IgG” and the “IgG secreted by B cells cultured with drug-treated T cells vs same numbers of untreated T cells” value is “greater amounts of IgG”. Besides, in the test on CD70 promoter, the “methylation of the 10 CG pairs” value is recorded as “hypomethylated compared to controls”. In addition, in the test with CD70 [2], the “CD70 expression increase in treated cells relative to untreated controls” value is > 2 fold. Also, in the test on CD70 mRNA, the “CD70 transcripts relative to β-actin, normalized to the untreated control” value is on record as “increase CD70 transcripts” and the “expression of CD70 mRNA relative to that of beta-actin vs untreated cells” value was “increased the expression of CD70 mRNA”. In the test on CD70 [3] (1 μM, P=0.048), the “increase of CD70 expression on T cell clone TT48E” value turned out to be 1.69±0.33 fold. Besides, in the test with CD70 [3] (1 μM, P=0.025, n=5), the “increase of CD70 MFI on CD4+ T cells” value is listed as 1.53±0.45 fold. Further, in the test with CD70 [3], the “CD70 expression … vs untreated” value is “small increase” and the “CD70 expression on CD4+ T cells” value is recorded as “increased CD70 expression”. In the test with CD70 [3] (range of 5-azaC concentrations, P=0.001 overall, n=5 experiments, FIG. 2B), the “concentration producing the greatest effect on CD70 expression” value was determined as 1 µM.
